Tests used:
[1] = test system: COS-7 cells; conditions: previously shown (Zhou et al., 1990); cited from earlier work
[2] = test system: D5 pseudogenes D5.psi.1 (HGRI-6) and D5.psi.2 (HGRI-8); experiment: [3H]SCH23390 binding to membranes of cells transfected with putative pseudogenes; parameters: species or system human; conditions: each of the two putative pseudogenes

SMILES: CN1CCc2cc(Cl)c(O)cc2[C@@H](c2ccccc2)C1 [SCH23390]
- ability to bind SCH23390 [1]: lack the ability to bind

SMILES: CN1CCc2cc(Cl)c(O)cc2[C@@H](c2ccccc2)C1 [[^3 H]SCH23390]
- binding to pseudogene-transfected membranes [2]: failed to bind
